Source: the NIST ThermoML archive (doi:10.1021/je100788g)

Tests used:
[1] = Vibrating tube method
[2] = refractive index (Na D-line) (dimensionless); conditions: 298.15 K; 101.33 kPa; Liquid; Standard Abbe refractometry
[3] = xn = mol fraction of the nth substance listed; conditions: 313.15 K, Fluid (supercritical or subcritical phases), Vibrating tube method

CCCCO [butan-1-ol]
[1], Liquid
Conditions | mass density [kg/m3]
298.15 K, 101.33 kPa | 805.8
313.15 K, 1000 kPa | 794.9
313.15 K, 2000 kPa | 795.6
313.15 K, 3000 kPa | 796.3
313.15 K, 4000 kPa | 797
313.15 K, 5000 kPa | 797.6
313.15 K, 6000 kPa | 798.3
313.15 K, 7000 kPa | 798.9
313.15 K, 8000 kPa | 799.6
313.15 K, 9000 kPa | 800.2
313.15 K, 10000 kPa | 800.9

Conditions | refractive index
[2] | 1.3973

CCCCO [butan-1-ol] + O=C=O
[3]
Conditions | mass density [kg/m3]
1000 kPa, x2 = 0 | 794.9
2000 kPa, x2 = 0 | 795.6
2000 kPa, x2 = 0.103 | 802.2
3000 kPa, x2 = 0 | 796.3
3000 kPa, x2 = 0.103 | 803
4000 kPa, x2 = 0 | 797
4000 kPa, x2 = 0.103 | 803.8
4000 kPa, x2 = 0.204 | 810.6
5000 kPa, x2 = 0 | 797.6
5000 kPa, x2 = 0.103 | 804.6
5000 kPa, x2 = 0.204 | 811.6
5000 kPa, x2 = 0.3 | 817
6000 kPa, x2 = 0 | 798.3
6000 kPa, x2 = 0.103 | 805.4
6000 kPa, x2 = 0.204 | 812.4
6000 kPa, x2 = 0.3 | 818.1
7000 kPa, x2 = 0 | 798.9
7000 kPa, x2 = 0.103 | 806.2
7000 kPa, x2 = 0.204 | 813.4
7000 kPa, x2 = 0.3 | 819.1
7000 kPa, x2 = 0.404 | 825.1
7000 kPa, x2 = 0.503 | 829.1
8000 kPa, x2 = 0 | 799.6
8000 kPa, x2 = 0.103 | 806.9
8000 kPa, x2 = 0.204 | 814.3
8000 kPa, x2 = 0.3 | 820.2
8000 kPa, x2 = 0.404 | 826.5
8000 kPa, x2 = 0.503 | 830.9
8000 kPa, x2 = 0.6 | 830.9
8000 kPa, x2 = 0.703 | 824.9
9000 kPa, x2 = 0 | 800.2
9000 kPa, x2 = 0.103 | 807.7
9000 kPa, x2 = 0.204 | 815.2
9000 kPa, x2 = 0.3 | 821.2
9000 kPa, x2 = 0.404 | 827.8
9000 kPa, x2 = 0.503 | 832.6
9000 kPa, x2 = 0.6 | 833.4
9000 kPa, x2 = 0.703 | 829.1
9000 kPa, x2 = 0.802 | 810.5
9000 kPa, x2 = 0.9 | 762.6
9000 kPa, x2 = 0.95 | 704.5
10000 kPa, x2 = 0 | 800.9
10000 kPa, x2 = 0.103 | 808.4
10000 kPa, x2 = 0.204 | 816.1
10000 kPa, x2 = 0.3 | 822.3
10000 kPa, x2 = 0.404 | 829.1
10000 kPa, x2 = 0.503 | 834.3
10000 kPa, x2 = 0.6 | 835.8
10000 kPa, x2 = 0.703 | 833.1
10000 kPa, x2 = 0.802 | 817.8
10000 kPa, x2 = 0.9 | 779.1
10000 kPa, x2 = 0.95 | 735.5

O=C=O [carbon dioxide]
[1], 313.15 K, Fluid (supercritical or subcritical phases)
Conditions | mass density [kg/m3]
1000 kPa | 17.9
2000 kPa | 37.1
3000 kPa | 58.7
4000 kPa | 83.5
5000 kPa | 112.7
6000 kPa | 148.8
7000 kPa | 197.3
8000 kPa | 276.7
9000 kPa | 483.4
10000 kPa | 627.4

O=C=O [carbon dioxide] + CCCCO
[3], x1 = 1
Conditions | mass density [kg/m3]
1000 kPa | 17.9
2000 kPa | 37.1
3000 kPa | 58.7
4000 kPa | 83.5
5000 kPa | 112.7
6000 kPa | 148.8
7000 kPa | 197.3
8000 kPa | 276.7
9000 kPa | 483.4
10000 kPa | 627.4
